Results: patent publication US9776979B2, “EBI2 modulators” (Sanford-Burnham Medical Research Institute, priority 2013, dated 2017)

target: EBI2 (Homo sapiens, UniProt P32249); test: Cell-based luminescent assay (EBI2 modulation); conditions: cell-based luminescence; 7a,25-OHC final assay concentration 80 nM; 60 minutes incubation; read-out: IC50
Procedure, shortened: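 Cells plated overnight at 37° C, then exposed to compound at 4-5 uM final with 80 nM 7a,25-OHC agonist for 60 min at 37° C. Luminescence read after 60 min detection at 25° C in the dark; values normalized to neutral and stimulator controls and plate-pattern corrected.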

Chain of EBI2 (P32249 whole entry): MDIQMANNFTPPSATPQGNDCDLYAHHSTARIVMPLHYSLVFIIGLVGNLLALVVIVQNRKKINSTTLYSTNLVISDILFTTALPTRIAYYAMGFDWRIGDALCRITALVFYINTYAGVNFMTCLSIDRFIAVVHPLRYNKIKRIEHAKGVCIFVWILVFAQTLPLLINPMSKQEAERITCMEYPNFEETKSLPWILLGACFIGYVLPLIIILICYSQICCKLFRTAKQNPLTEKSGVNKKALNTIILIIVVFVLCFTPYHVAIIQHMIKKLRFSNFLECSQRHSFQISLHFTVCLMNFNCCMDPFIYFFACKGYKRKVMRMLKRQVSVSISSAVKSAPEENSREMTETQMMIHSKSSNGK

Row | SMILES | IC50
1 | O=C(c1cnc2ccccc2c1)N1CCN(C(c2ccccc2)c2ccccc2)CC1 [Compound C125, 4-(diphenylmethyl)piperazinyl 3-quinolyl ketone] | < 100 nM
2 | O=C(c1cc2cc(F)ccc2[nH]1)N1CCN(C(c2ccccc2)c2ccccc2)CC1 [Compound C126, 4-(diphenylmethyl)piperazinyl 5-fluoroindol-2-yl ketone] | < 100 nM
3 | O=C(c1cccc(Cl)c1)N1CCN(C(=O)c2cc3cc(C(F)(F)F)ccc3[nH]2)CC1 [Compound C127, 4-[(3-chlorophenyl)carbonyl]piperazinyl 5-(trifluoromethyl)indol-2-yl ketone] | < 100 nM
4 | O=C(C#Cc1ccc(F)cc1)N1CCN(C(=O)c2ccc(F)cc2)CC1 [Compound C128, 3-(4-fluorophenyl)-1-{4-[(4-fluorophenyl)carbonyl]piperazinyl}prop-2-yn-1-one] | < 100 nM
5 | O=C(C#Cc1cccc(Cl)c1)N1CCN(Cc2ccc(F)cc2)CC1 [Compound C129, 3-(3-chlorophenyl)-1-{4-[(4-fluorophenyl)methyl]piperazinyl}prop-2-yn-1-one] | < 100 nM
6 | O=C(/C=C/c1ccc(Br)cc1)N1CCN(Cc2ccc(Cl)cc2F)CC1 [Compound C130, (2E)-3-(4-bromophenyl)-1-{4-[(4-chloro-2-fluorophenyl)methyl]piperazinyl}prop-2-en-1-one] | < 100 nM
7 | O=C(/C=C/c1ccc(Br)cc1)N1CCN(Cc2ccc(F)cc2C(F)(F)F)CC1 [Compound C131, (2E)-3-(4-bromophenyl)-1-(4-{[4-fluoro-2-(trifluoromethyl)phenyl]methyl}piperazinyl)prop-2-en-1-one] | < 100 nM
8 | O=C(C#Cc1cccc(Cl)c1Cl)N1CCN(C(=O)c2ccc(C(F)(F)F)cc2)CC1 [Compound C132, 3-(2,3-dichlorophenyl)-1-(4-{[4-(trifluoromethyl)phenyl]carbonyl}piperazinyl)prop-2-yn-1-one] | < 100 nM
9 | O=C(c1ccc(C(F)(F)F)cc1)N1CCN(C(=O)c2cc3cc(C(F)(F)F)ccc3[nH]2)CC1 [Compound C133, 5-(trifluoromethyl)indol-2-yl 4-{[4-(trifluoromethyl)phenyl]carbonyl}piperazinyl ketone] | < 100 nM
10 | O=C(c1ccc(F)cc1)N1CCN(C(=O)c2cc3cc(Br)ccc3[nH]2)CC1 [Compound C135, 5-bromoindol-2-yl 4-[(4-fluorophenyl)carbonyl]piperazinyl ketone] | < 100 nM
11 | O=C(NCC1CCN(C(=O)/C=C/c2ccc(Br)cc2)CC1)c1ccc(F)cc1 [Compound C136, N-({1-[(2E)-3-(4-bromophenyl)prop-2-enoyl](4-piperidyl)}methyl)(4-fluorophenyl)carboxamide] | < 100 nM
12 | O=C(C#Cc1ccc(C(F)(F)F)cc1)N1CCN(Cc2ccc(Cl)cc2)CC1 [Compound C137, 1-{4-[(4-chlorophenyl)methyl]piperazinyl}-3-[4-(trifluoromethyl)phenyl]prop-2-yn-1-one] | < 100 nM
13 | O=C(/C=C/c1ccc(F)cc1)N1CCN(S(=O)(=O)c2cccc(Cl)c2)CC1 [Compound C138, (2E)-1-{4-[(3-chlorophenyl)sulfonyl]piperazinyl}-3-(4-fluorophenyl)prop-2-en-1-one] | < 100 nM
14 | O=C(C#Cc1ccccc1)N1CCN(C(c2ccccc2)c2ccccc2)CC1 [Compound C139, 1-[4-(diphenylmethyl)piperazinyl]-3-phenylprop-2-yn-1-one] | < 100 nM
15 | O=C(c1ccc(C(F)(F)F)cc1)N1CCN(C(=O)c2cc3cc(Br)ccc3[nH]2)CC1 [Compound C140, 5-bromoindol-2-yl 4-{[4-(trifluoromethyl)phenyl]carbonyl}piperazinyl ketone] | < 100 nM
16 | O=C(C#Cc1cccc(Cl)c1Cl)N1CCN(Cc2ccc(F)cc2C(F)(F)F)CC1 [Compound C141, 3-(2,3-dichlorophenyl)-1-(4-{[4-fluoro-2-(trifluoromethyl)phenyl]methyl}piperazinyl)prop-2-yn-1-one] | < 100 nM
17 | O=C(c1cc2cc(C(F)(F)F)ccc2s1)N1CCN(C(c2ccccc2)c2ccccc2)CC1 [Compound C142, 4-(diphenylmethyl)piperazinyl 5-(trifluoromethyl)benzo[b]thiophen-2-yl ketone] | < 100 nM
18 | CC(C)(C)c1ccc(CN2CCN(C(=O)/C=C/c3ccc(Br)cc3)CC2)cc1 [Compound C144, (2E)-1-(4-{[4-(tert-butyl)phenyl]methyl}piperazinyl)-3-(4-bromophenyl)prop-2-en-1-one] | < 100 nM
19 | CCC(=O)N1CCN(C(=O)/C=C/c2ccc(Br)cc2)CC1 [Compound C145, (2E)-3-(4-bromophenyl)-1-(4-propanoylpiperazinyl)prop-2-en-1-one] | < 100 nM
20 | COc1ccc(/C=C/C(=O)N2CCN(S(=O)(=O)c3ccc(Br)cc3)CC2)cc1 [Compound C146, (2E)-1-{4-[(4-bromophenyl)sulfonyl]piperazinyl}-3-(4-methoxyphenyl)prop-2-en-1-one] | < 100 nM
21 | O=C(/C=C/c1cc(F)c(F)c(F)c1)N1CCN(C(c2ccccc2)c2ccccc2)CC1 [Compound C147] | < 100 nM

Row | SMILES | IC50
22 | O=C(C#Cc1ccc(Br)cc1)N1CCN(C(=O)c2ccc(-c3nnn[nH]3)cc2)CC1 [Compound C149, 3-(4-bromophenyl)-1-{4-[(4-(5H-1,2,3,4-tetraazol-5-yl)phenyl)carbonyl]piperazinyl}prop-2-yn-1-one] | < 100 nM
23 | COc1ccc(C(=O)N2CCN(C(=O)c3cc4ccc(Cl)cc4[nH]3)CC2)cc1 [Compound C151, 6-chloroindol-2-yl 4-[(4-methoxyphenyl)carbonyl]piperazinyl ketone] | < 100 nM
24 | O=C(/C=C/c1ccc(Br)cc1)N1CCN(C(=O)c2ccc(-c3nnn[nH]3)cc2)CC1 [Compound C152, (2E)-3-(4-bromophenyl)-1-{4-[(4-(1H-1,2,3,4-tetraazol-5-yl)phenyl)carbonyl]piperazinyl}prop-2-en-1-one] | < 100 nM
25 | O=C(/C=C/c1ccc(Br)cc1)N1CCN(C(=O)c2ccc(B(O)O)cc2)CC1 [Compound C153, (E)-(4-(4-(3-(4-bromophenyl)acryloyl)piperazine-1-carbonyl)phenyl)boronic acid] | < 100 nM
26 | O=C(C=C(Br)c1ccc(Br)cc1)N1CCN(C(c2ccccc2)c2ccccc2)CC1 [Compound C155, 1-[4-(diphenylmethyl)piperazinyl]-3-bromo-3-(4-bromophenyl)prop-2-en-1-one] | < 100 nM
27 | O=C(c1cc2cc(F)ccc2s1)N1CCN(C(c2ccccc2)c2ccccc2)CC1 [Compound C156, 4-(diphenylmethyl)piperazinyl 5-fluorobenzo[b]thiophen-2-yl ketone] | < 100 nM
28 | O=C(C#Cc1cccc(Cl)c1)N1CCN(C(=O)c2ccc(F)cc2C(F)(F)F)CC1 [Compound C157, 3-(3-chlorophenyl)-1-(4-{[4-fluoro-2-(trifluoromethyl)phenyl]carbonyl}piperazinyl)prop-2-yn-1-one] | < 100 nM
29 | Cc1ccc2[nH]c(C(=S)N3CCN(C(c4ccccc4)c4ccccc4)CC3)cc2c1 [Compound C158, [4-(diphenylmethyl)piperazinyl](5-methylindol-2-yl)methane-1-thione] | < 100 nM
30 | O=C(C#Cc1ccc(F)cc1)N1CCN(C(c2ccccc2)c2ccccc2)CC1 [Compound C159, 1-[4-(diphenylmethyl)piperazinyl]-3-(4-fluorophenyl)prop-2-yn-1-one] | < 100 nM
31 | O=C(C#Cc1ccc(Br)cc1)N1CCN(C(=O)c2ccc(B(O)O)cc2)CC1 [Compound C160, 4-(4-(3-(4-bromophenyl)propioloyl)piperazine-1-carbonyl)phenylboronic acid] | < 100 nM
32 | O=C(/C=C/c1ccccc1)N1CCN(Cc2ccc([N+](=O)[O-])cc2)CC1 [Compound C161, (2E)-1-{4-[(4-nitrophenyl)methyl]piperazinyl}-3-phenylprop-2-en-1-one] | < 100 nM
33 | Cc1ccc2[nH]c(C(=O)NC3CCN(C(c4ccccc4)c4ccccc4)CC3)cc2c1 [Compound C162, N-[1-(diphenylmethyl)(4-piperidyl)](5-methylindol-2-yl)carboxamide] | 500 to 5000 nM
34 | O=C(c1cc[nH]c1)N1CCN(C(=O)c2cc3cc(Cl)ccc3[nH]2)CC1 [Compound C163, 5-chloroindol-2-yl 4-(pyrrol-3-ylcarbonyl)piperazinyl ketone] | 500 to 5000 nM
35 | O=C(c1ccc(Br)cc1)N1CCN(Cc2ccc(F)cc2C(F)(F)F)CC1 [Compound C164, 4-bromophenyl 4-{[4-fluoro-2-(trifluoromethyl)phenyl]methyl}piperazinyl ketone] | 500 to 5000 nM
36 | O=C(c1ccc(Br)cc1)N1CCN(Cc2ccc(F)cc2)CC1 [Compound C165, 4-bromophenyl 4-[(4-fluorophenyl)methyl]piperazinyl ketone] | 500 to 5000 nM
37 | O=C(C#Cc1ccc(F)cc1F)N1CCN(C(=O)c2ccc(C(F)(F)F)cc2)CC1 [Compound C166, 3-(2,4-difluorophenyl)-1-(4-{[4-(trifluoromethyl)phenyl]carbonyl}piperazinyl)prop-2-yn-1-one] | 500 to 5000 nM
38 | O=C(C=Cc1ccc2c(c1)OCO2)N1CCN(Cc2ccc(C(F)(F)F)cc2)CC1 [Compound C167, 3-(2H-benzo[3,4-d]1,3-dioxolan-5-yl)-1-(4-{[4-(trifluoromethyl)phenyl]methyl}piperazinyl)prop-2-en-1-one] | 500 to 5000 nM
39 | O=C(c1nc2ccccc2s1)N1CCN(C(c2ccccc2)c2ccccc2)CC1 [Compound C168, benzothiazol-2-yl 4-(diphenylmethyl)piperazinyl ketone] | 500 to 5000 nM
40 | O=C(C#Cc1ccccc1C(F)(F)F)N1CCN(C(=O)c2ccc(C(F)(F)F)cc2)CC1 [Compound C169, 3-[2-(trifluoromethyl)phenyl]-1-(4-{[4-(trifluoromethyl)phenyl]carbonyl}piperazinyl)prop-2-yn-1-one] | 500 to 5000 nM
41 | O=C(C#Cc1ccc(Cl)c(Cl)c1)N1CCN(Cc2ccc(C(F)(F)F)cc2)CC1 [Compound C171, 3-(3,4-dichlorophenyl)-1-(4-{[4-(trifluoromethyl)phenyl]methyl}piperazinyl)prop-2-yn-1-one] | 500 to 5000 nM
